Where no end group is shown, it is not given here.
Tests used:
T47D = assay: MTT primary screening of anticancer activity, T47D; format: cell-based; settings: 25 µM pACP, 24 h, maintenance medium 1% FBS, ratio of viability to vehicle (PBS), at least three technical repetitions
How it was run: (§1)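 Cultures grown to 60% confluence; complete medium replaced by 1% FBS maintenance medium; peptide added at 25 µM final; incubated 24 h; viability assessed by MTT.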

HT29 = assay: MTT primary screening of anticancer activity, HT29; format: cell-based, Human; settings: 25 µM pACP, 24 h, maintenance medium 1% FBS, ratio of viability to vehicle (PBS), at least three technical repetitions
How it was run: as §1

Hela = assay: MTT primary screening of anticancer activity, Hela; format: cell-based, Human; settings: 25 µM pACP, 24 h, maintenance medium 1% FBS, ratio of viability to vehicle (PBS), at least three technical repetitions
How it was run: as §1

CT26 subcutaneous tumors = assay: CT26 subcutaneous xenograft tumor model in nude mice; format: in vivo; set-up: Mean Diff, tumor volume growth, Control vs. peptide (Dunnett's multiple comparisons test): unit not given here; settings: for tumor size compared to control-treated animals: CT26 subcutaneous tumors, athymic nude mice, two intratumoral injections (day 0, day 2), monitored six days, p <0.05; for tumor size compared to control-treated animals / signs of acute toxicity in tumor-bearing mice / survival of treated mice: 0.80 mg kg-1 pACP2283 or 0.51 mg kg-1 pACP1780; for Mean Diff, tumor volume growth, Control vs. peptide (Dunnett's multiple comparisons test): CT26 tumors in nude mice, intratumoral pACP1780 0.51 mg kg-1 or pACP2283 0.80 mg kg-1 on day 0 and day 2, six mice per group; for signs of acute toxicity in tumor-bearing mice / survival of treated mice: athymic nude mice with CT26 tumors, two intratumoral injections
Experimental: To evaluate the translational relevance of our methodology, we selected these two pACPs for in vivo studies. […] Subcutaneous tumors were established using CT26 cells in athymic nude mice, and the animals were randomized to receive two intratumoral injections of 0.80 mg kg^−1 pACP2283, 0.51 mg kg^−1 pACP1780, or PBS control on day 0 and day 2. The dosage of pACPs was calculated as five times the CC50 of each compound in CT26 cells. Tumor size was monitored daily for six days (Figure 3c).
Six‐week‐old female nude mice were obtained from Beijing HFK Bioscience Co., Ltd. and were acclimated to the laboratory environment for one‐week prior to the commencement of the experiments. All experimental procedures were conducted in a manner that minimized discomfort, distress, and pain to the animals. Mice were group‐housed, with a maximum of five animals per cage, under a light‐dark cycle of 12 h, with a constant temperature of 21–22°C and humidity of 55 ± 5%. They were provided with standard rodent chow and water ad libitum. The Ethics Committee of the Institute of Microbiology, Chinese Academy of Sciences approved all procedures (SQIMCAS2021005).
Murine colorectal carcinoma cell line CT26 was cultured in RPMI‐1640 medium supplemented with 10% fetal bovine serum and 1% penicillin/streptomycin at 37°C and 5% CO2. Tumor formation was induced by injecting was 5×106 ml^−1 CT26 cells into the right forelimb of each mouse. All mice were housed in the same environment with sufficient food and water. Throughout the study, the survival status and tumor progression of the mice on a daily basis were observed. The mice were randomly divided into three groups and received different treatments. CT26 cells were injected on […] for all groups. On Day 0, ACPs (pACP1780: 0.51 mg kg^−1 and pACP2283: 0.80 mg kg^−1) were intratumorally injected, while the Control group received an intratumoral injection of the same volume of PBS. On Day 2, the ACPs were intratumorally injected again, and the Control group received an injection of the same volume of PBS.

MDA-MB-468 = assay: MTT primary screening of anticancer activity, MDA-MB-468; format: cell-based; settings: 25 µM pACP, 24 h, maintenance medium 1% FBS, ratio of viability to vehicle (PBS), at least three technical repetitions
How it was run: as §1

EFM192A = assay: MTT primary screening of anticancer activity, EFM192A; format: cell-based; settings: 25 µM pACP, 24 h, maintenance medium 1% FBS, ratio of viability to vehicle (PBS), at least three technical repetitions
How it was run: as §1

Caco2 = assay: MTT primary screening of anticancer activity, Caco2; format: cell-based, Human; settings: 25 µM pACP, 24 h, maintenance medium 1% FBS, ratio of viability to vehicle (PBS), at least three technical repetitions
How it was run: as §1

MDA-MB-231 = assay: MTT primary screening of anticancer activity, MDA-MB-231; format: cell-based; settings: 25 µM pACP, 24 h, maintenance medium 1% FBS, ratio of viability to vehicle (PBS), at least three technical repetitions
How it was run: as §1

B16 = assay: MTT primary screening of anticancer activity, B16; format: cell-based, Mouse; settings: 25 µM pACP, 24 h, maintenance medium 1% FBS, ratio of viability to vehicle (PBS), at least three technical repetitions
How it was run: as §1

SK-BR-3 = assay: MTT primary screening of anticancer activity, SK-BR-3; format: cell-based; settings: 25 µM pACP, 24 h, maintenance medium 1% FBS, ratio of viability to vehicle (PBS), at least three technical repetitions
How it was run: as §1

tumor-free mice = assay: Acute toxicity in tumor-free mice; format: in vivo; settings: for growth rate of body weight: after injection into the abdomen at 50 mg kg-1, gradually recovered over the next five days; for symptoms of illness or body weight loss, acute toxicity: injected into the abdomen at 2, 10 and 50 mg kg-1 over three days, up to 50 mg kg-1
Experimental: Furthermore, we investigated the safety of pACP2283 and pACP1780 both in vivo and in vitro. […] Additionally, we conducted an acute toxicity experiment in tumor‐free mice by administering pACPs with increasing concentrations into the abdomen. […] This temporary decrease in body weight growth rate may be attributed to the high concentrations of pACPs, which temporarily disturbed the mice's homeostasis.
To assess the toxicity of pACP1780 and pACP2283 at the cellular level, HEK293 cells were grown to 60% confluence in complete medium (10% FBS) for 24 h, and then treated with increasing concentrations (1.5, 3, 6, 12.5, 25, 50, and 100 µM) of each pACPs in maintenance medium (1% FBS) for 24 h. The viability of HEK293 cells was determined using the MTT Cell Proliferation and Cytotoxicity Assay Kit following the manufacturer's instructions. For acute toxicity in tumor‐free mice, the pACPs were injected into the abdomen at increasing concentrations of 2, 10, and 50 mg kg^−1 of mouse weight over three days, and the body weights were recorded throughout the process.

MCF7 = assay: MTT primary screening of anticancer activity, MCF7; format: cell-based; settings: 25 µM pACP, 24 h, maintenance medium 1% FBS, ratio of viability to vehicle (PBS), at least three technical repetitions
How it was run: as §1

RRFAWIGKLQSRKVRNNIRQYRTKIVRQMRRQIFRQMKQKAE [pACP1780]
Survival rate of cancer cells in primary screening (T47D): 0.0167
Survival rate of cancer cells in primary screening (HT29): 0.33
Survival rate of cancer cells in primary screening (Hela): 0.00724
tumor size compared to control-treated animals (CT26 subcutaneous tumors): significantly reduced tumor size
Mean Diff, tumor volume growth, Control vs. peptide (Dunnett's multiple comparisons test) (CT26 subcutaneous tumors; Day 0): 0
Mean Diff, tumor volume growth, Control vs. peptide (Dunnett's multiple comparisons test) (CT26 subcutaneous tumors; Day 1): 0.4906
Mean Diff, tumor volume growth, Control vs. peptide (Dunnett's multiple comparisons test) (CT26 subcutaneous tumors; Day 2): 0.7153
Mean Diff, tumor volume growth, Control vs. peptide (Dunnett's multiple comparisons test) (CT26 subcutaneous tumors; Day 3): 0.6812
Mean Diff, tumor volume growth, Control vs. peptide (Dunnett's multiple comparisons test) (CT26 subcutaneous tumors; Day 4): 1.652
Mean Diff, tumor volume growth, Control vs. peptide (Dunnett's multiple comparisons test) (CT26 subcutaneous tumors; Day 5): 2.41
signs of acute toxicity in tumor-bearing mice (CT26 subcutaneous tumors): no overt signs of acute toxicity were observed
survival of treated mice (CT26 subcutaneous tumors): all mice survived
Survival rate of cancer cells in primary screening (MDA-MB-468): 0.19
Survival rate of cancer cells in primary screening (EFM192A): 0.01
Survival rate of cancer cells in primary screening (Caco2): 0.74
Survival rate of cancer cells in primary screening (MDA-MB-231): 0.09
Survival rate of cancer cells in primary screening (B16): 0.41
Survival rate of cancer cells in primary screening (SK-BR-3): 0.03
growth rate of body weight (tumor-free mice): slight decrease
symptoms of illness or body weight loss, acute toxicity (tumor-free mice): no significant symptoms of illness or body weight loss
Survival rate of cancer cells in primary screening (MCF7): 0.0113

WWRRAERSVRRFFGTPIGPFPEIFGRRKAHKKKIIAKFDSVNG [pACP2283]
Survival rate of cancer cells in primary screening (T47D): 0.0119
Survival rate of cancer cells in primary screening (HT29): 0.51
Survival rate of cancer cells in primary screening (Hela): 0.00225
tumor size compared to control-treated animals (CT26 subcutaneous tumors): significantly reduced tumor size
Mean Diff, tumor volume growth, Control vs. peptide (Dunnett's multiple comparisons test) (CT26 subcutaneous tumors; Day 0): 0
Mean Diff, tumor volume growth, Control vs. peptide (Dunnett's multiple comparisons test) (CT26 subcutaneous tumors; Day 1): 0.7285
Mean Diff, tumor volume growth, Control vs. peptide (Dunnett's multiple comparisons test) (CT26 subcutaneous tumors; Day 2): 1.385
Mean Diff, tumor volume growth, Control vs. peptide (Dunnett's multiple comparisons test) (CT26 subcutaneous tumors; Day 3): 1.698
Mean Diff, tumor volume growth, Control vs. peptide (Dunnett's multiple comparisons test) (CT26 subcutaneous tumors; Day 4): 2.95
Mean Diff, tumor volume growth, Control vs. peptide (Dunnett's multiple comparisons test) (CT26 subcutaneous tumors; Day 5): 3.362
signs of acute toxicity in tumor-bearing mice (CT26 subcutaneous tumors): no overt signs of acute toxicity were observed
survival of treated mice (CT26 subcutaneous tumors): all mice survived
Survival rate of cancer cells in primary screening (MDA-MB-468): 0.09
Survival rate of cancer cells in primary screening (EFM192A): 0.15
Survival rate of cancer cells in primary screening (Caco2): 1.00
Survival rate of cancer cells in primary screening (MDA-MB-231): 0.06
Survival rate of cancer cells in primary screening (B16): 0.28
Survival rate of cancer cells in primary screening (SK-BR-3): 0.0341
growth rate of body weight (tumor-free mice): slight decrease
symptoms of illness or body weight loss, acute toxicity (tumor-free mice): no significant symptoms of illness or body weight loss
Survival rate of cancer cells in primary screening (MCF7): 0.0549
